Reference: ChEMBL document CHEMBL1201862, “PubChem BioAssay data set” (2004)
Each block holds one compound with its values, some of them ahead of it. Activity calls are given as the source filed them. Unless noted, the rule behind the calls is not given here.

Key:
[1] = target: Protein S100-A4 (Homo sapiens, UniProt P26447); test: S100A4-myosin IIA binding inhibitor potency, dose response, biochemical, fluorescence polarization, cherry-picked hits (AID 687001); format: functional
[2] = miR-122 activators in hepatoma reporter cells, dose response, cell-based, Huh7 psiCHECK-miR122, Renilla luciferase, cherry-picked (AID 651956); format: functional;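 also: huh7 hepatoma cells stably carrying a psiCHECK-2 miR-122 sensor plasmid; renilla luciferase signal reporting endogenous miR-122 activity after 48 h compound exposure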
[3] = NIH/3T3 fibroblast cytotoxicity, dose response, cytotoxicity control for T. cruzi growth inhibitor project, cell-based, cherry-pick samples, set 2 (AID 651817); format: functional; conditions: NIH3T3
[4] = target: Palmitoyl-protein thioesterase ABHD10, mitochondrial (Mus musculus, UniProt Q6PE15); test: Late stage assay provider results from the probe development effort to identify inhibitors of PME-1: fluorescence-based dose response biochemical gel-based competitive Activity-Based Protein Profiling (ABPP) inhibition of ABHD10 Set 1.; format: functional
Chain of Palmitoyl-protein thioesterase ABHD10, mitochondrial (Q6PE15 whole entry): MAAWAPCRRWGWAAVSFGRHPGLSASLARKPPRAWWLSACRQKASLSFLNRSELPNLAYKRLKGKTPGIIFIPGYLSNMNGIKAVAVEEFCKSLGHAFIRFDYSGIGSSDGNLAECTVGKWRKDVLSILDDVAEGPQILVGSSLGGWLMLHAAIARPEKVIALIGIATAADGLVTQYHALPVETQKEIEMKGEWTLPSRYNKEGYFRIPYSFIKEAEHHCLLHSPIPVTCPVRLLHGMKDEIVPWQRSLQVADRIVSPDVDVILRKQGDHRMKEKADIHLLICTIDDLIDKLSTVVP

[5] = Inhibition of T. cruzi Tulahuen strain amastigotes in L-6 muscle cells Measured in Cell-Based and Microorganism Combination System Using Plate Reader - 2138-03_Inhibitor_Dose_CherryPick_Activity.; format: functional; conditions: Rattus norvegicus, L6
[6] = Inhibition of Plasmodium falciparum NF54 Measured in Cell-Based System Using Plate Reader - 2138-11_Inhibitor_Dose_CherryPick_Activity.; format: functional
[7] = L. donovani amastigote growth inhibition, dose response, axenic amastigotes, plate reader, cherry pick (AID 651891); format: functional, cell-based; conditions: Leishmania donovani
[8] = cytotoxicity in L-6 rat myocytes, dose response, cytotoxicity control, cell-based, plate reader, cherry-pick (AID 651896); format: functional
[9] = T. b. rhodesiense proliferation inhibition, dose response, STIB900 strain, plate reader, cherry pick (AID 651893); format: functional, cell-based; conditions: Trypanosoma brucei
[10] = target: T1, Sentrin-specific protease 1 (Homo sapiens, UniProt Q9P0U3); test: Dose response confirmation of small molecule inhibitors of the catalytic domain of the SUMO protease, SENP1 in a FRET assay.; format: functional; conditions: read-out: IC50_Mean
T1 sequence (Q9P0U3 whole entry, the tested form may be a part): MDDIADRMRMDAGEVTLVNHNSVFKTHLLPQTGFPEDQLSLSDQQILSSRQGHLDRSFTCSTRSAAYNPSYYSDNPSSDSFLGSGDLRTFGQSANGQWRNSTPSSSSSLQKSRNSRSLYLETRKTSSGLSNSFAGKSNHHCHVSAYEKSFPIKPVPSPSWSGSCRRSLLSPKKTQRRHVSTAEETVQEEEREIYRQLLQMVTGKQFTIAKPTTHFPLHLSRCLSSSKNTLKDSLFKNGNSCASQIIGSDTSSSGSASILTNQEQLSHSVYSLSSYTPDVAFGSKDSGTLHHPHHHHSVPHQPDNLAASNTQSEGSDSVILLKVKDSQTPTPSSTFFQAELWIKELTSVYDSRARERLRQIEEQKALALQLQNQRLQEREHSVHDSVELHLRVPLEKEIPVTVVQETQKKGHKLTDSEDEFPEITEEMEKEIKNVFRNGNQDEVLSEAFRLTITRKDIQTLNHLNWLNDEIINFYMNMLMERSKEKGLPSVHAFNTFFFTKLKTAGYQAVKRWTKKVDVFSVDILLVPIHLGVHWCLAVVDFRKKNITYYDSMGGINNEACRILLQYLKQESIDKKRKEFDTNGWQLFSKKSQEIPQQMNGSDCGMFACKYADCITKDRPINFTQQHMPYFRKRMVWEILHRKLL

[11] = target: T1, Sentrin-specific protease 1; test: potency of human SENP1 inhibitors, dose response, biochemical, kinetic FRET (AID 651697); format: functional; conditions: read-out: IC50_Mean

Chain of Protein S100-A4 (P26447 whole entry): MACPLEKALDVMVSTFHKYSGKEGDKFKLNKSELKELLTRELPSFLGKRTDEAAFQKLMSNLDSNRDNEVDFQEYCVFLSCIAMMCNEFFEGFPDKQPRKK

Structure (SMILES): C[C@@H]1CN([C@H](C)CO)S(=O)(=O)c2ccc(/C=C/c3ccccc3)cc2O[C@@H]1CN(C)C(=O)c1cccnc1
AC50 [2]: 2.93 µM (active)

Structure (SMILES): Cc1ccc(S(=O)(=O)N(C)C[C@@H]2Oc3c(NC(=O)c4nc5ccccc5s4)cccc3C(=O)N([C@H](C)CO)C[C@@H]2C)cc1
AC50 [3]: 24.8 µM (active)

Structure (SMILES): C[C@@H]1CN([C@H](C)CO)C(=O)c2cccc(NC(=O)c3ccncc3)c2O[C@@H]1CN(C)Cc1ccc(Cl)c(Cl)c1
IC50 [5]: 5.59 µM (inactive) | IC50 [6]: 5.59 µM (inactive) | IC50 [7]: > 100 µM (inactive) | IC50 [8]: > 100 µM (inactive) | IC50 [9]: 11.1 µM (inactive)

Second part, the compound after the results:

AC50 [1]: 1.09 µM (active)
Structure (SMILES): O=C1C(N2CCOCC2)=Cc2cccc3cccc1c23

IC50 [4]: 0.012 µM (active)
Structure (SMILES): CCCOC(=O)N1C(=O)[C@@](CC)(c2ccc(C)cc2)N1C(=O)OCCC

IC50 [10]: 14.2 µM (active) | IC50 [11]: 24.4 µM (inactive)
Structure (SMILES): COc1cc([C@H]2c3c(cc(OC)c(O)c3OC)C[C@@H](CO)[C@@H]2CO[C@@H]2O[C@H](CO)[C@@H](O)[C@H](O)[C@H]2O)cc(OC)c1O
